This is an account of results in patent publication US11542316B2, “S-Arrestin peptides and therapeutic uses thereof” (APITOPE INTERNATIONAL NV, priority 2017, dated 2023).

Ends that are not written are not given here.

The assay concerns LN cells and splenocytes upon SAg or peptide restimulation. Nature of the assay: Ex vivo tolerization experiment, DR2tg mice. Conditions: DR2 mice, IFN-γ. In kind it is in vivo. Here is the method: FIG. 7: Ex vivo tolerisation protocol. Mice are injected subcutaneously in the flank with 0.1 μg/ml, 1 μg/ml and 10 μg/ml peptide on days −15, −13 and −11, followed by 3 injections of 100 μg/ml on days −8, −6 and −4 (escalating dose regime). On day 0, mice are immunized subcutaneously at the base of the tail with SAg/CFA or peptide/CFA. Mice are sacrificed 10 days after immunization to measure proliferation of LN cells and splenocytes upon SAg or peptide restimulation. LN, lymph nodes.
FIG. 11: Ex vivo tolerance induction by HIP-9K1-KKK apitope. DR2 mice are injected subcutaneously in the flank with 0.1 μg/ml, 1 μg/ml and 10 μg/ml HIP-9K1-KKK on days −15, −13 and −11, followed by 3 injections of 100 μg/ml on days −8, −6 and −4 (escalating dose regime). On day 0, mice are immunized subcutaneously at the base of the tail with HIP-9FL/CFA. Mice are sacrificed 10 days after immunization to measure proliferation of LN cells and splenocytes upon SAg or peptide restimulation. Data represent mean±SEM of the concentration values for the PBS-treated mice (black lines) and peptide-treated mice (color lines). IFN-γ production expressed as IFN-γ concentration (pg/ml). Two-way ANOVA was used to measure overall treatment effects on T cell activation and p-values are written in the graphs. Bonferonni post-hoc testing was used and significant differences are indicated in the graphs (* p<0.05; **** p<0.0001). LN, lymph nodes. (A) Tolerisation against SAg in LN. (B) Tolerisation against HIP-9FL and HIP-9K1-KKK in LN. (C) Tolerisation against SAg in spleen. (D) Tolerisation against HIP-9FL and HIP-9K1-KKK in spleen.
FIG. 13: Ex vivo tolerance induction by HIP-12G1-KKK apitope. DR2 mice are injected subcutaneously in the flank with 0.1 μg/ml, 1 μg/ml and 10 μg/ml HIP-12G1-KKK on days −15, −13 and −11, followed by 3 injections of 100 μg/ml on days −8, −6 and −4 (escalating dose regime). On day 0, mice are immunized subcutaneously at the base of the tail with HIP-12AK/CFA. Mice are sacrificed 10 days after immunization to measure proliferation of LN cells and splenocytes upon SAg or peptide restimulation. Data represent mean±SEM of the concentration values for the PBS-treated mice (black lines) and peptide-treated mice (color lines). IFN-γ production expressed as IFN-γ concentration (pg/ml). Two-way ANOVA was used to measure overall treatment effects on T cell activation and p-values are written in the graphs. Bonferonni post-hoc testing was used and significant differences are indicated in the graphs (** p<0.01; *** p<0.001: **** p<0.0001). LN, lymph nodes. (A) Tolerisation against HIP-12G1-KKK and HIP-12G1 in LN. (B) Tolerisation against HIP-12G1-KKK in spleen.
DR3tg or DR2tg mice were injected subcutaneously in the flank region with 0.1 μg, 1 μg and 10 μg of peptide on days −15, −13 and −11 respectively, followed by 3 injections of 100 μg peptide on days −8, −6 and −4 (dose escalation schedule). On day 0, the mice were immunised subcutaneously in the base of the tail with 50 μg antigen (parental peptide) emulsified in CFA (peptide/CFA). Ten days after immunisation, draining lymph nodes (LN) and spleens were harvested. LN cells and splenocytes were isolated and cultured in X-vivo 15 medium (supplemented with 2 mM L-glutamine, 50 U/mL penicillin and 50 U/mL streptomycin; Lonza) in 96-well flat bottom plates. To investigate antigen-induced cell proliferation, 0.5×10^6 cells/well were cultured (200 μl/well) for 72 hours with different antigen concentrations (0-25 μg/ml) or with 12.5 μg/ml purified protein derivative (PPD; priming control; Statens serum institut, Copenhagen, Denmark). After 72 hours, supernatant was harvested and stored at −80° C. until further analysis. IFN-γ concentrations in supernatants were assessed by cytokine ELISA (R&D Systems, Abingdon, UK) to measure cell activation.

For the substance “KKKAFVEQVANVVLKKK-NH2 [HIP-9K1-KKK, KKKAFVEQVANVVLKKK]”, the “tolerization against the peptide itself / parental peptide” value (LN) is “tolerization induced”. The “tolerization against SAg” value (LN, escalating dose regime s.c.) is “tolerization induced”. Also, where the note is “spleen”, the “tolerization against SAg” value is reported as “Tolerance is also induced” and the “tolerization against the peptide itself” value is reported as “Tolerance is also induced”.
